# Measured values as given in PMC8584989 (International Journal of Molecular Sciences, 2021).
# pIC50: −log10 of the molar value. Read-outs that look alike come from different tables or passages of the source.
# Assays:
# [1] = XTT proliferation / drug combination assay; settings: human
# A431-ABCC1 cells = assay: MTT proliferation assay (comparative viability); format: cell-based; settings: single drug, 48 h
# Protocol: (§1) These colorimetric assays were used in various studies presented in this paper (prior induction studies, MDR reversal experiments and comparative viability assays) and were performed as reported previously. […] In MTT experiments, cells were seeded on a 96-well culture plate at densities (in number of cells/well) of 1.3 × 10^4 for MDCKII-par, MDCKII-ABCB1 and MDCKII-ABCG2; 1.2 × 10^4 for A431-par, A431-ABCB1, A431-ABCG2 and A431-ABCC1; 1.2 × 10^4 for NCI-H1299; 1.0 × 10^4 for A459; 2.0 × 10^4 for Caco-2; 5.0 × 10^4 for LS174T; and 1.0 × 10^4 for primary NSCLC explants. On the other hand, for XTT cells were seeded with densities 2.0 × 10^4 for HL60-par, HL60-ABCB1, HL60-ABCG2 and HL60-ABCC1 cells/well on 96-well plates. […] Following 48 h incubation with drugs, Opti-MEM solutions of MTT or XTT (1 mg/mL) with phenazine methosulfate solution (7.50 μg/mL; only for XTT) was added and the cells were incubated for 1 h with the exception of HL60s that were incubated for 5 h.
# HL60-par cells = assay: XTT proliferation / drug combination assay; format: cell-based; settings: 48 h, read-out: HL60-par IC50
# Protocol: as §1
# Based on the computed CI values, the effects of drug combinations were classified as synergistic (CI < 0.9), additive (0.9 < CI < 1.1) or antagonistic (CI > 1.1).
# [2] = tested on: KB drug resistant cell lines; settings: in vitro KB drug resistant cell lines; cited from earlier work
# [3] = XTT proliferation / drug combination assay; settings: human; remark: listed apart in the source
# [4] = tested on: patient-derived NSCLC explants; assay: Daunorubicin and mitoxantrone accumulation in primary NSCLC explants; format: cell-based, human; settings: six primary cultures; predominantly those with higher transporters' expression levels
# Text: Tumor biopsies were donated by NSCLC patients at the Department of Cardiac Surgery, University Hospital Hradec Králové following written informed consent approved by the University Hospital Ethics Committee (study no. 202002 […]). Subjects' characteristics are shown in Supplementary Materials (Table S1). The NSCLC samples were collected immediately after the lung lobectomy and excision of tumor by the pathologist, which was followed by the isolation of cancer cells using a modified procedure based on previously published protocols. The tumor tissues were minced in small pieces around 2-5 mm in diameter using a scalpel. To liberate the cells from tissues, the minced pieces were transferred into the prewarmed 0.1% collagenase in 1 × MEM and placed in the water bath for 30 min. Following the incubation, BSA in MEM was added and cells were sieved through a 40 μm-sized cell strainer. Then, the solution was centrifuged at 200× g for 5 min. The pellet was resuspended with a BSA solution in MEM. […] The cells there trypsinized on ice, resuspended with 2% FBS in cold PBS solution and then fluorescence was detected using flow cytometer (BD FACSCanto II, Allschwil, Switzerland). […] For data presentation, the ratios of relative fluorescence units (RFUs) from treated samples to RFUs from vehicle-treated (control) cells were computed generating “relative substrate accumulation”.
# CYP3A4 = settings: DI study in healthy subjects; cited from earlier work
# CYP2C8 = target: T1, CYP2C8 (Homo sapiens, UniProt P10632); assay: Vivid CYP450 Screening Kit, recombinant CYP2C8; format: in vitro ADME; settings: recombinant enzyme; read-out: CYP2C8 inhibition IC50
# T1 construct: purchased Thermo Fisher Scientific
# T1 sequence (P10632 whole entry): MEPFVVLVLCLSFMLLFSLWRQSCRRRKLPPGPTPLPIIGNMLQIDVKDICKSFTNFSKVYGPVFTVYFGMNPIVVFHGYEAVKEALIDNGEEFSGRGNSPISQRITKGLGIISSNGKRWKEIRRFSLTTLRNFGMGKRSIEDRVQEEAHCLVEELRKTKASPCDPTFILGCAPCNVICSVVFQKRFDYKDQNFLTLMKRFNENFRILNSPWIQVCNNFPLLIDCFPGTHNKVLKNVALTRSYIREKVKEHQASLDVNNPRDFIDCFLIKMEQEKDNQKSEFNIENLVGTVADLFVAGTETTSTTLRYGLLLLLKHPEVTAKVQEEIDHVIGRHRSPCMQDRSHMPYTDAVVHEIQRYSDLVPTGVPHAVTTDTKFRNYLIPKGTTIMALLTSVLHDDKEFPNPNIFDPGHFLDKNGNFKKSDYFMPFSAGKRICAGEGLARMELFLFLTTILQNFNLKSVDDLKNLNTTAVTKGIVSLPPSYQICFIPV
# Protocol: (§2) CYP inhibitory assay was performed using Vivid CYP450 screening kit as described previously. The kits consist of microsomal fraction containing human CYP isoforms, human CYP reductase and in several cases cytochrome b5. Experiments were performed following the manufacturer’s protocol on black 96-well plates using kinetic mode. […] Then, the master mix (CYP isoenzyme with an NADPH regeneration system in buffer) was added in each well and plate was pre-incubated for 10 min. The reaction was started with the mixture of NADP^+ and Vivid substrate and the fluorescence of samples was measured in 1 min interval for 60 min using an Infinite M200 Pro microplate reader (Tecan, Männedorf, Switzerland). Data from linear phase (15 min) were used for data evaluation.
# [5] = MTT proliferation / drug combination assay; settings: human
# ABCB1 [6] = target: T2, ABCB1 (Homo sapiens, UniProt P08183); settings: DI study in healthy subjects; cited from earlier work
# T2 sequence (P08183 whole entry): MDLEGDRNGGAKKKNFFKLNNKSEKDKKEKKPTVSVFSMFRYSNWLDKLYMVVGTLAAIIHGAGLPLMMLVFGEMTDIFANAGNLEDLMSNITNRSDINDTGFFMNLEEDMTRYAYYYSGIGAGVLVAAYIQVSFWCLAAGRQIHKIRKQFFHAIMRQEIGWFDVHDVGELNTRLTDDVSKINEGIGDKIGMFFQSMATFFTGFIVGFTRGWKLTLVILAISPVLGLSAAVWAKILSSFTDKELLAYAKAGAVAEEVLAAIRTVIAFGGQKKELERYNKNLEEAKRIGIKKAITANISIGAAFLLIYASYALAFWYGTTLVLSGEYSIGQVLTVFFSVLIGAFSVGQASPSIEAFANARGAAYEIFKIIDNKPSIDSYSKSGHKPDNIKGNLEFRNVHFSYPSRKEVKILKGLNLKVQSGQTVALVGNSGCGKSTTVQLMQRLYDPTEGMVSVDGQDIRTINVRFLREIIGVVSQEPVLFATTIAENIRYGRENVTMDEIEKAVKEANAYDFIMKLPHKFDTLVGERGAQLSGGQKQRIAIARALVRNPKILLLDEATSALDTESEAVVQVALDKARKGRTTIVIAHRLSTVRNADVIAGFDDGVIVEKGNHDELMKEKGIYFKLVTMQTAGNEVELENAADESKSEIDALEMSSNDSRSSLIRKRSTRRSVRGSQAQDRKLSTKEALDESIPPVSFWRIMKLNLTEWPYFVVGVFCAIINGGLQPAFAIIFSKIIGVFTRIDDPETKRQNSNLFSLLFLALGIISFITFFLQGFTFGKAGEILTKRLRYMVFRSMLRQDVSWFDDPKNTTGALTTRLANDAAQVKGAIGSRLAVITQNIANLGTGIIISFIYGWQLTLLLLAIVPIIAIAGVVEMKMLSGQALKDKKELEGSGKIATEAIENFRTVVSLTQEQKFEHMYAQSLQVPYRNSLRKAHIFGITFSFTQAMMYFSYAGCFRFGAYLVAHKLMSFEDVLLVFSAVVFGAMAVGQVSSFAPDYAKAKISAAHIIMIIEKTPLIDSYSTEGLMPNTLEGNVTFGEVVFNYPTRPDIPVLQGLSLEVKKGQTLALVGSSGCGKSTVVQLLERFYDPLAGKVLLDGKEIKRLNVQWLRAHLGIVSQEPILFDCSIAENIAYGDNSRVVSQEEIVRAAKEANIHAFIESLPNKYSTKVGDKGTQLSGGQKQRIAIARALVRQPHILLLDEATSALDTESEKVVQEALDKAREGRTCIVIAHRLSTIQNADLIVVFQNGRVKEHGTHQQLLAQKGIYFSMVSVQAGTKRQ
# [7] = MTT proliferation / drug combination assay; settings: human; remark: listed apart in the source
# ABCB1 [8] = target: T2, ABCB1; assay: Inhibitory accumulation assay in MDCKII-ABCB1 cells; format: cell-based
# Protocol: Accumulation assays were performed as described previously. […] The daunorubicin and mitoxantrone accumulation assays were performed in above mentioned cell lines and were also adopted to primary NSCLC cultures. […] Cells were incubated up to 70-80% confluence for approximately 24 h. […] The cells there trypsinized on ice, resuspended with 2% FBS in cold PBS solution and then fluorescence was detected using flow cytometer (BD FACSCanto II, Allschwil, Switzerland). […] For data presentation, the ratios of relative fluorescence units (RFUs) from treated samples to RFUs from vehicle-treated (control) cells were computed generating “relative substrate accumulation”.
# CYP2C9 = target: T3, CYP2C9 (Homo sapiens, UniProt P11712); assay: Vivid CYP450 Screening Kit, recombinant CYP2C9; format: in vitro ADME; settings: recombinant enzyme; read-out: CYP2C9 inhibition IC50
# T3 construct: purchased Thermo Fisher Scientific
# T3 sequence (P11712 whole entry): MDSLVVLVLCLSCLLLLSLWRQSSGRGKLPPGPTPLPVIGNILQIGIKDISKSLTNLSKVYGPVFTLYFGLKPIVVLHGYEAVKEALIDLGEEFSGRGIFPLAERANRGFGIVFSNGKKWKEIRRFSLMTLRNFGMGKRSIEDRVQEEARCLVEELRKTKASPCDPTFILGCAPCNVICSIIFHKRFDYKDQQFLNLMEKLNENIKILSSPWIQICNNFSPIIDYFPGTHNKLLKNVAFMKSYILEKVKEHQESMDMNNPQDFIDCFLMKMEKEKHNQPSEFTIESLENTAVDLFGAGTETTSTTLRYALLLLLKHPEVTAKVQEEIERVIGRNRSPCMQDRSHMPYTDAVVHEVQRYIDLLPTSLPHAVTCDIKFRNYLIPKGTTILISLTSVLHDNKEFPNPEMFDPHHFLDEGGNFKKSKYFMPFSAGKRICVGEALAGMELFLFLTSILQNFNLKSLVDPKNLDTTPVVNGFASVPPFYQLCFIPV
# Protocol: as §2
compound,measurement,setting,value
"CN1CCC(COc2cnc(-c3cccc(Cn4nc(-c5cccc(C#N)c5)ccc4=O)c3)nc2)CC1 [tepotinib, Tepotinib]",IC50 at 48 h,[1],19.6 µM
same,pIC50,A431-ABCC1 cells,4.79
same,pIC50,HL60-par cells,4.71
same,Effect on anticancer effect of paclitaxel and vincristine,[2],potentiate the anticancer effect of paclitaxel and vincristine
same,IC50 at 48 h,[3],19.4 µM
same,Effect on accumulation of mitoxantrone and daunorubicin,[4],significantly increased the accumulation of model anticancer drugs in some of the primary samples
same,Effect on CYP3A4 substrate midazolam,CYP3A4,failed to exert the effect
same,pIC50,CYP2C8,4.69
same,IC50 at 48 h,[5],16.4 µM
same,Effect on AUC and Cmax of ABCB1 substrate dabigatran etexilate,ABCB1 [6],significantly increased AUC and Cmax
same,IC50 at 48 h,[7],16.5 µM
same,pIC50,"ABCB1 [8]; 2 µM daunorubicin, 1 h, read-out: IC50, relative daunorubicin accumulation",5.89
same,pIC50,"ABCB1 [8]; 8 µM hoechst 33342, read-out: IC50, relative Hoechst 33342 accumulation",5.50
same,pIC50,CYP2C9,5.77
